Experimental data published in patent publication US10842783B2, “Avibactam and carbapenems antibacterial agents” (THE JOHNS HOPKINS UNIVERSITY, priority 2017, dated 2020).
“Also recorded” adds a separate entry of the source.

System: M. abscessus ATCC 19977
Test: Broth microdilution MIC of carbapenems with and without β-lactamase inhibitors, reference strain
Type: cell-based, Mycobacterium abscessus
Details: 7H9 broth, avibactam at fixed 4 μg/mL
Experimental: (§1) All strains were initially grown in 7H9 complete medium composed of Middlebrook 7H9 broth (Difco) supplemented with 0.5% glycerol, 10% oleic acid-albumin-dextrose-catalase and 0.05% Tween-80 at 37° C. with constant shaking. A standard broth microdilution method was used to determine MIC. Briefly, M. abscessus strains were grown as described above and these cultures, at exponential phase (A600 nm˜0.6-0.8), were used to inoculate 10^5 colony forming units (CFU) into each well of microtiter culture plates containing a carbapenem at two fold serial dilutions ranging from 256 to 0.25 μg/mL. An identical setup but with wells containing 4 μg/mL of avibactam was used to assess the effect of this agent on each carbapenem. Carbapenems studied were procured commercially from Sigma-Aldrich and include ertapenem, meropenem, imipenem, doripenem, biapenem, faropenem, tebipenem and panipenem. β-lactamase inhibitors sulbactam, tazobactam and avibactam were also procured from Sigma-Aldrich. In addition, to establish baseline antibacterial susceptibility for each strain we also determined MICs for drugs currently used to treat M. abscessus infections. They are linezolid, cefoxitin, kanamycin, ciprofloxacin, moxifloxacin, amikacin, tigecycline, imipenem, tobramycin, trimethoprim/sulfamethoxazole, and clarithromycin. M. abscessus growth was evaluated by visual inspection of pellets after 3 days of incubation (the exception being clarithromycin for which incubation was extended to 14 days) at 30° C. without shaking per CLSI guidelines. In addition to assessment in 7H9 complete medium, we also used cation adjusted Mueller-Hinton broth for MIC studies for the reference strain M. abscessus ATCC 19977. All experiments were repeated and the final data represent the average of two biological replicates.
We studied the utility of β-lactamase inhibitors sulbactam, tazobactam, and avibactam in restoring in vitro potencies of carbapenems against M. abscessus using the reference drug-susceptible strain ATCC 19977. We determined MICs of ertapenem, meropenem, imipenem, doripenem, biapenem, faropenem, tebipenem and panipenem alone or in the presence of the aforementioned […] β-lactamase inhibitors.

Structure (SMILES) | Minimum inhibitory concentration, 7H9 + avibactam
C[C@@H](O)[C@H]1C(=O)N2C(C(=O)O)=C([C@H]3CCCO3)S[C@H]12 [Faropenem, faropenem] | 8 to 16 µg/mL
CC(=N)N1CC[C@H](SC2=C(C(=O)O)N3C(=O)[C@H]([C@@H](C)O)[C@H]3C2)C1 [Panipenem, panipenem] | 8 to 16 µg/mL
C[C@@H](O)[C@H]1C(=O)N2C(C(=O)O)=C(S[C@@H]3CN[C@H](C(=O)Nc4cccc(C(=O)O)c4)C3)[C@H](C)[C@H]12 [Ertapenem, ertapenem] | 4 to 8 µg/mL

Same assay, conditions: 7H9 broth, sulbactam at fixed 4 μg/mL

Structure (SMILES) | Minimum inhibitory concentration, 7H9 + sulbactam
C[C@@H](O)[C@H]1C(=O)N2C(C(=O)O)=C([C@H]3CCCO3)S[C@H]12 [Faropenem, faropenem] | 16 to 32 µg/mL
CC(=N)N1CC[C@H](SC2=C(C(=O)O)N3C(=O)[C@H]([C@@H](C)O)[C@H]3C2)C1 [Panipenem, panipenem] | 16 to 32 µg/mL
C[C@@H](O)[C@H]1C(=O)N2C(C(=O)O)=C(S[C@@H]3CN[C@H](C(=O)Nc4cccc(C(=O)O)c4)C3)[C@H](C)[C@H]12 [Ertapenem, ertapenem] | >64 µg/mL

Same assay, conditions: 7H9 broth, tazobactam at fixed 4 μg/mL

Structure (SMILES) | Minimum inhibitory concentration, 7H9 + tazobactam
C[C@@H](O)[C@H]1C(=O)N2C(C(=O)O)=C([C@H]3CCCO3)S[C@H]12 [Faropenem, faropenem] | 32 to 64 µg/mL
CC(=N)N1CC[C@H](SC2=C(C(=O)O)N3C(=O)[C@H]([C@@H](C)O)[C@H]3C2)C1 [Panipenem, panipenem] | 32 to 64 µg/mL
C[C@@H](O)[C@H]1C(=O)N2C(C(=O)O)=C(S[C@@H]3CN[C@H](C(=O)Nc4cccc(C(=O)O)c4)C3)[C@H](C)[C@H]12 [Ertapenem, ertapenem] | 32 to 64 µg/mL

Same assay, conditions: Mycobacteroides abscessus, ATCC19977; 7H9 broth, drug alone; read-out: Minimum inhibitory concentration, 7H9 broth

Structure (SMILES) | MIC
C[C@@H](O)[C@H]1C(=O)N2C(C(=O)O)=C([C@H]3CCCO3)S[C@H]12 [Faropenem, faropenem] | 32 to 64 µg/mL
CC(=N)N1CC[C@H](SC2=C(C(=O)O)N3C(=O)[C@H]([C@@H](C)O)[C@H]3C2)C1 [Panipenem, panipenem] | 64 to 128 µg/mL
C[C@@H](O)[C@H]1C(=O)N2C(C(=O)O)=C(S[C@@H]3CN[C@H](C(=O)Nc4cccc(C(=O)O)c4)C3)[C@H](C)[C@H]12 [Ertapenem, ertapenem] | 64 to 128 µg/mL

Same assay, conditions: Mycobacteroides abscessus, ATCC19977; carbapenem alone, single values given; read-out: MIC of carbapenems against the drug sensitive control strain

Structure (SMILES) | MIC
C[C@@H](O)[C@H]1C(=O)N2C(C(=O)O)=C([C@H]3CCCO3)S[C@H]12 [Faropenem, faropenem] | 64 µg/mL
CC(=N)N1CC[C@H](SC2=C(C(=O)O)N3C(=O)[C@H]([C@@H](C)O)[C@H]3C2)C1 [Panipenem, panipenem] | 128 µg/mL
C[C@@H](O)[C@H]1C(=O)N2C(C(=O)O)=C(S[C@@H]3CN[C@H](C(=O)Nc4cccc(C(=O)O)c4)C3)[C@H](C)[C@H]12 [Ertapenem, ertapenem] | 128 µg/mL

Same assay, conditions: Mycobacteroides abscessus, ATCC19977; cation-adjusted Mueller-Hinton broth, drug alone; read-out: Minimum inhibitory concentration, CAMHB only

Structure (SMILES) | MIC
C[C@@H](O)[C@H]1C(=O)N2C(C(=O)O)=C([C@H]3CCCO3)S[C@H]12 [Faropenem, faropenem] | 64 to 128 µg/mL
CC(=N)N1CC[C@H](SC2=C(C(=O)O)N3C(=O)[C@H]([C@@H](C)O)[C@H]3C2)C1 [Panipenem, panipenem] | 64 to 128 µg/mL
C[C@@H](O)[C@H]1C(=O)N2C(C(=O)O)=C(S[C@@H]3CN[C@H](C(=O)Nc4cccc(C(=O)O)c4)C3)[C@H](C)[C@H]12 [Ertapenem, ertapenem] | 128 to 256 µg/mL

Same assay, conditions: cation-adjusted Mueller-Hinton broth, avibactam at fixed 4 μg/mL

Structure (SMILES) | Minimum inhibitory concentration, CAMHB + avibactam
C[C@@H](O)[C@H]1C(=O)N2C(C(=O)O)=C([C@H]3CCCO3)S[C@H]12 [Faropenem, faropenem] | 16 to 32 µg/mL
CC(=N)N1CC[C@H](SC2=C(C(=O)O)N3C(=O)[C@H]([C@@H](C)O)[C@H]3C2)C1 [Panipenem, panipenem] | 8 to 16 µg/mL
C[C@@H](O)[C@H]1C(=O)N2C(C(=O)O)=C(S[C@@H]3CN[C@H](C(=O)Nc4cccc(C(=O)O)c4)C3)[C@H](C)[C@H]12 [Ertapenem, ertapenem] | 8 to 16 µg/mL

System: not given
Test: not given
Details: in vivo; cited from earlier work

Structure (SMILES) | Average peak plasma concentration | Half-life
CC(=N)N1CC[C@H](SC2=C(C(=O)O)N3C(=O)[C@H]([C@@H](C)O)[C@H]3C2)C1 [Panipenem, panipenem] | ~22 µg/mL | 
C[C@@H](O)[C@H]1C(=O)N2C(C(=O)O)=C(S[C@@H]3CN[C@H](C(=O)Nc4cccc(C(=O)O)c4)C3)[C@H](C)[C@H]12 [Ertapenem, ertapenem] | ~150 µg/mL | ~4 h

System: M. abscessus clinical strains
Test: Broth microdilution MIC of carbapenems with and without avibactam, twenty eight clinical isolates
Type: cell-based, Mycobacterium abscessus
Details: clinical strains, avibactam 4 μg/mL
Source text: Twenty eight unique clinical isolates of M. abscessus were used in this study. These strains were obtained de-identified from the archive of the clinical microbiology laboratory of the Johns Hopkins University Hospital per institutional ethical guidelines. They were isolated over a 10 year period, from 2005-2015, from patients that were temporally and geographically unrelated. No two isolates are from the same patient. Those displaying a high level of resistance to antibacterials used for M. abscessus infection were selected for this study. All strains obtained prior to 2014 were identified to the M. abscessus complex level using a variety of methods including 16S rDNA sequencing in conjunction with selected biochemical testing such as sodium citrate. More recent isolates (those isolated after 2014) were identified using MALDI ToF mass spectrometry in which a Bruker MicroFlex LT (MicroFlex LT) mass spectrometer and Bruker Biotyper software and existing database (version 2.0, Bruker) were employed. Sub-speciation within the M. abscessus complex, which helps to distinguish between M. abscessus sensu stricto, M. massiliense, and M. bolletii, was not done as this is not per the current standard of care at the Johns Hopkins Clinical Mycobacteriology Laboratory. Distinguishing between M. abscessus sensu stricto and M. massiliense is most often performed to guide therapy since M. massiliense is known to have a non-funtional erm gene and is therefore susceptible to macrolides. However, due to the high number of macrolide resistant M. abscessus complex isolates recovered at Johns Hopkins, most patient isolates are subjected to drug susceptibility testing, making speciation within the complex of lesser importance. Thus, the proportion of each subspecies within the M. abscessus complex for the Johns Hopkins strain collection is not known. M. abscessus ATCC 19977 was included as a reference drug-sensitive strain.
as §1

Structure (SMILES) | Effect of avibactam on the MIC of the carbapenem, in words
C[C@@H](O)[C@H]1C(=O)N2C(C(=O)O)=C([C@H]3CCCO3)S[C@H]12 [Faropenem, faropenem] | least effective
CC(=N)N1CC[C@H](SC2=C(C(=O)O)N3C(=O)[C@H]([C@@H](C)O)[C@H]3C2)C1 [Panipenem, panipenem] | levels that are therapeutically relevant; also recorded: levels achievable in the blood
C[C@@H](O)[C@H]1C(=O)N2C(C(=O)O)=C(S[C@@H]3CN[C@H](C(=O)Nc4cccc(C(=O)O)c4)C3)[C@H](C)[C@H]12 [Ertapenem, ertapenem] | levels that are therapeutically relevant; also recorded: levels achievable in the blood

Same assay, conditions: twenty eight clinical strains, avibactam 4 μg/mL

Structure (SMILES) | Average reduction in MICs of the carbapenems in combination with avibactam
C[C@@H](O)[C@H]1C(=O)N2C(C(=O)O)=C([C@H]3CCCO3)S[C@H]12 [Faropenem, faropenem] | 3 fold
CC(=N)N1CC[C@H](SC2=C(C(=O)O)N3C(=O)[C@H]([C@@H](C)O)[C@H]3C2)C1 [Panipenem, panipenem] | 8 fold
C[C@@H](O)[C@H]1C(=O)N2C(C(=O)O)=C(S[C@@H]3CN[C@H](C(=O)Nc4cccc(C(=O)O)c4)C3)[C@H](C)[C@H]12 [Ertapenem, ertapenem] | > 13 fold
